Assay results reported in paper PMC8575457, “Molecular reconstruction of recurrent evolutionary switching in olfactory receptor specificity” (eLife, 2021).
Positions count from the first letter of the chain named.

Experiments:
Test in all cases: single sensillum extracellular recording, Ir decoder neuron
Settings in all cases: 1% v/v odor in water, 10 ul, 500 ms pulse; agonist
DmelIr75b^DsecS1 [1] = target: T1, DmelIr75b^DsecS1 (Drosophila melanogaster, UniProt A0A1S6EMU4, I210K/M217L/K220Q/N259S/I277M/F289L/Q291K, form not given); assay type: cell-based
T1 construct: gene IR75b; UAS transgene in Ir decoder neuron; with Ionotropic receptor 8a (D. melanogaster, endogenous)
T1 sequence (A0A1S6EMU4 1-609 I210K/M217L/K220Q/N259S/I277M/F289L/Q291K): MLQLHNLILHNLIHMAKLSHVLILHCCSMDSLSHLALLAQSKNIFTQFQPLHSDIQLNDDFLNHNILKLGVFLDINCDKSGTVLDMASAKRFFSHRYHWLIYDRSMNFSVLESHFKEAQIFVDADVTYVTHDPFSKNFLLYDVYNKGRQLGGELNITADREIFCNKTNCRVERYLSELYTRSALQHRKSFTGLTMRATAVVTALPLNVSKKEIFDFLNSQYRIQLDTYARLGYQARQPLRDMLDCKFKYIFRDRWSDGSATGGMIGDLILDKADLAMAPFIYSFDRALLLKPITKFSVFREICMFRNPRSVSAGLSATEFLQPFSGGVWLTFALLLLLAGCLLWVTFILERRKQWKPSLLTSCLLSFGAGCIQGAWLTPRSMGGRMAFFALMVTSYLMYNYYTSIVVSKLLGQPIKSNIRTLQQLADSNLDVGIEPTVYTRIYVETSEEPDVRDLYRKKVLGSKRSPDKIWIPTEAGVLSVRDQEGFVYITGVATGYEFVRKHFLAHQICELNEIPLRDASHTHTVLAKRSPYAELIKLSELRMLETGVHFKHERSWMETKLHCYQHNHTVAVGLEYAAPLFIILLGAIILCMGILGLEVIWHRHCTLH
T1 sequence (Q9W365 18-936 partner): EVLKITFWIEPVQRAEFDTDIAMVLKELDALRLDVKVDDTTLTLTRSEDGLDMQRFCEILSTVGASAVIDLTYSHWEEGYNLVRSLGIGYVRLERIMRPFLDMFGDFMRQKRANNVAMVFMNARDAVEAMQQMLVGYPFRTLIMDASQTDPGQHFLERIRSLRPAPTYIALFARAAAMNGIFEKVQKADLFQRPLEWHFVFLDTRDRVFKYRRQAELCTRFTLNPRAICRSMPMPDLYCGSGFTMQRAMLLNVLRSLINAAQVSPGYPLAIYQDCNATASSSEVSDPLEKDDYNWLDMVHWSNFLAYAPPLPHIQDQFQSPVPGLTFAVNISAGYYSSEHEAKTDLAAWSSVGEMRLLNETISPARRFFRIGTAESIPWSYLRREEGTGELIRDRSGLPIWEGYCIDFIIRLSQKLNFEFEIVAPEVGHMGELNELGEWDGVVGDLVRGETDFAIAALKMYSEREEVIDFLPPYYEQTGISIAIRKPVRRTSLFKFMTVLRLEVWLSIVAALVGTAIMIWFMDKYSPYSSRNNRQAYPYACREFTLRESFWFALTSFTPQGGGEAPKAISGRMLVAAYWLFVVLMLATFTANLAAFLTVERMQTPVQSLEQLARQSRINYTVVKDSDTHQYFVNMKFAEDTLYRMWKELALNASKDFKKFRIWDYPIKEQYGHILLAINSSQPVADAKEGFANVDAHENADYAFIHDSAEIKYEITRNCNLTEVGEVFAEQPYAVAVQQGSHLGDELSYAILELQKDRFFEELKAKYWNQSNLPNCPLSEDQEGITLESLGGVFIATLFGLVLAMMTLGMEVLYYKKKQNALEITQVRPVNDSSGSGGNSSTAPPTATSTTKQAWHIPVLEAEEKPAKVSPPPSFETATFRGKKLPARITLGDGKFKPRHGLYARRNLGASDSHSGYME

DsecIr75b = target: T2, DsecIr75b (Drosophila sechellia, UniProt A0A1S6EMU3); assay type: cell-based, Drosophila melanogaster
T2 construct: gene IR75b; cDNA, UAS transgene expressed in D. melanogaster Ir decoder neuron with D. melanogaster Ir8a; predicted heterotetramer; with Ionotropic receptor 8a (D. melanogaster, endogenous)
T2 sequence (A0A1S6EMU3 1-609): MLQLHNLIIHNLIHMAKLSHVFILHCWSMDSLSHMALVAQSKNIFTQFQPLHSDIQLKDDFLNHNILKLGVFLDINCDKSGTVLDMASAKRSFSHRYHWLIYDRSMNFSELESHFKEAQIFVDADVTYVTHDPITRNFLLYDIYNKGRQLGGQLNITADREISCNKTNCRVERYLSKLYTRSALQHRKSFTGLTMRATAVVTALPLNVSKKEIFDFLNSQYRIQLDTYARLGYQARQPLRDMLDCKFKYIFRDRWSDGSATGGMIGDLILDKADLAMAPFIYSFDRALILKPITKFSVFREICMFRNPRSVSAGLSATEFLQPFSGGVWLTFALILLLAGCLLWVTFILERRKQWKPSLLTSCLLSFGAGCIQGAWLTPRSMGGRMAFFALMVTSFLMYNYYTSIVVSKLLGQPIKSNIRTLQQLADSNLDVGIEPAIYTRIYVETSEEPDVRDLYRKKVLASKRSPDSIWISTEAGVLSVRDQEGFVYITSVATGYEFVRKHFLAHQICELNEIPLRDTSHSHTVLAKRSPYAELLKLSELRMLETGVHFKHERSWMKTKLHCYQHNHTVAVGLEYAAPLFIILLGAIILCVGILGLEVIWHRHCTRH
T2 sequence (Q9W365 18-936 partner): T1 sequence (Q9W365 18-936 partner)

DmelIr75b = target: T3, DmelIr75b (Drosophila melanogaster, UniProt A0A1S6EMU4, T523S); assay type: cell-based
T3 construct: gene IR75b; cDNA, UAS transgene expressed in D. melanogaster Ir decoder neuron with endogenous Ir8a; predicted heterotetramer; with Ionotropic receptor 8a (D. melanogaster, endogenous)
T3 sequence (A0A1S6EMU4 1-609 T523S): T1 sequence (A0A1S6EMU4 1-609 I210K/M217L/K220Q/N259S/I277M/F289L/Q291K) with K210I, L217M, Q220K, S259N, M277I, L289F, K291Q, T523S
T3 sequence (Q9W365 18-936 partner): T1 sequence (Q9W365 18-936 partner)

DmelIr75b^DsecS1 [2] = target: T4, DmelIr75b^DsecS1 (Drosophila melanogaster, UniProt A0A1S6EMU4, I210K/M217L/K220Q/N259S/I277M/F289L/Q291K/P473S/G492S/A520T/T523S, form not given); assay type: cell-based
T4 construct: gene IR75b; UAS transgene in Ir decoder neuron; with Ionotropic receptor 8a (D. melanogaster, endogenous)
T4 sequence (A0A1S6EMU4 1-609 I210K/M217L/K220Q/N259S/I277M/F289L/Q291K/P473S/G492S/A520T/T523S): T1 sequence (A0A1S6EMU4 1-609 I210K/M217L/K220Q/N259S/I277M/F289L/Q291K) with P473S, G492S, A520T, T523S
T4 sequence (Q9W365 18-936 partner): T1 sequence (Q9W365 18-936 partner)

CCCCCC(=O)O [C6, hexanoic acid]
solvent-corrected response (spikes/s) (DmelIr75b^DsecS1 [1]): DmelIr75b^DsecS1, with significantly increased responses to C6 | solvent-corrected response (spikes/s) (DsecIr75b): its response to C6 is significantly smaller than that of DsecIr75b | solvent-corrected response (spikes/s) (DmelIr75b): mutation of the hotspot in DmelIr75b is sufficient to confer novel responses to C5 and C6 | solvent-corrected response (spikes/s) (DmelIr75b^DsecS1 [2]): DmelIr75b^DsecS1,4mutS2 still has a significantly increased sensitivity to C6 when compared with DmelIr75b
